Test results: patent US10259779B2 (WAYNE STATE UNIVERSITY, priority 2016, dated 2019)
Each block holds one molecule with its values, some of them ahead of it.

Columns and labels:
[1] = test system: HDAC proteins in HeLa cell lysates; assay: Global HDAC inhibition with HeLa cell lysates (HDAC-Glo I/II substrate); format: biochemical; conditions: for Deacetylase activity (%): Hela Lysate
Protocol: HDAC activity was measured using the commercially available HDAC-Glo™ I/II substrate (Promega).
Lysates were prepared according to the reported procedure.^28 HeLa-S3 cells (purchased from Biovest) were lysed in lysis buffer (1×10^9 cells in 10 mL lysis buffer; 50 mM Tris-HCl, pH 8.0, 10% glycerol, 150 mM NaCl, 0.5% Triton X-100, and 1× protease inhibitor cocktail (GenDEPOT)) with rotation at 4° C. for 30 min. Cell debris was removed by centrifugation at 12000 rpm at 4° C. for 30 min. Protein concentration of the supernatant was determined using Bio-Rad protein assay (BioRad, Bradford reagent). Lysates were stored at −80° C.
To measure global HDAC inhibition, HeLa cell lysates (1 μg total protein) were mixed with HDAC-Glo™ buffer in polystyrene 96-well half area white plate (Corning) to a final volume of 12 μL, followed by addition of inhibitors in DMSO (0.5 μL) and incubation for 15 min at room temperature without rocking. An uninhibited control reaction was also included that contained DMSO (0.5 μL). Finally, deacetylase activity was measured using the HDAC-Glo™ assay kit (Promega) as per the manufacturer's protocol. Specifically, the HDAC-Glo™ substrate (1 mL) and developer ([…]) were first premixed to form the HDAC-Glo™ reagents. Then, to monitor deacetylase activity, HDAC-Glo™ reagent (5 μL) and HDAC-Glo™ buffer (7.5 μL) were added to each well (25 μL total volume) and incubated for 35 min at room temperature without rocking. The deacetylase activity was measured as luminescent signal using a GeniosPlus Fluorimeter (Tecan) at optimal gain. The concentrations of inhibitors reported in the dose-dependent studies (Table 2) are final concentrations after addition of HDAC-Glo™ reagent HDAC-Glo™ buffer.

[2] = target: T1, HDAC6 (Homo sapiens, UniProt Q9UBN7); assay: ELISA-based HDAC activity assay, HDAC6; conditions: for HDAC6 fold selectivity HDAC1: HDAC6 over HDAC1; for HDAC6 fold selectivity HDAC1 / HDAC6 fold selectivity HDAC2 / HDAC6 fold selectivity HDAC3: calculated from IC50 values; for HDAC6 fold selectivity HDAC2: HDAC6 over HDAC2; for HDAC6 fold selectivity HDAC3: HDAC6 over HDAC3; for IC50: read-out: IC50 values (nM) HDAC6
T1 sequence (Q9UBN7 1-1215): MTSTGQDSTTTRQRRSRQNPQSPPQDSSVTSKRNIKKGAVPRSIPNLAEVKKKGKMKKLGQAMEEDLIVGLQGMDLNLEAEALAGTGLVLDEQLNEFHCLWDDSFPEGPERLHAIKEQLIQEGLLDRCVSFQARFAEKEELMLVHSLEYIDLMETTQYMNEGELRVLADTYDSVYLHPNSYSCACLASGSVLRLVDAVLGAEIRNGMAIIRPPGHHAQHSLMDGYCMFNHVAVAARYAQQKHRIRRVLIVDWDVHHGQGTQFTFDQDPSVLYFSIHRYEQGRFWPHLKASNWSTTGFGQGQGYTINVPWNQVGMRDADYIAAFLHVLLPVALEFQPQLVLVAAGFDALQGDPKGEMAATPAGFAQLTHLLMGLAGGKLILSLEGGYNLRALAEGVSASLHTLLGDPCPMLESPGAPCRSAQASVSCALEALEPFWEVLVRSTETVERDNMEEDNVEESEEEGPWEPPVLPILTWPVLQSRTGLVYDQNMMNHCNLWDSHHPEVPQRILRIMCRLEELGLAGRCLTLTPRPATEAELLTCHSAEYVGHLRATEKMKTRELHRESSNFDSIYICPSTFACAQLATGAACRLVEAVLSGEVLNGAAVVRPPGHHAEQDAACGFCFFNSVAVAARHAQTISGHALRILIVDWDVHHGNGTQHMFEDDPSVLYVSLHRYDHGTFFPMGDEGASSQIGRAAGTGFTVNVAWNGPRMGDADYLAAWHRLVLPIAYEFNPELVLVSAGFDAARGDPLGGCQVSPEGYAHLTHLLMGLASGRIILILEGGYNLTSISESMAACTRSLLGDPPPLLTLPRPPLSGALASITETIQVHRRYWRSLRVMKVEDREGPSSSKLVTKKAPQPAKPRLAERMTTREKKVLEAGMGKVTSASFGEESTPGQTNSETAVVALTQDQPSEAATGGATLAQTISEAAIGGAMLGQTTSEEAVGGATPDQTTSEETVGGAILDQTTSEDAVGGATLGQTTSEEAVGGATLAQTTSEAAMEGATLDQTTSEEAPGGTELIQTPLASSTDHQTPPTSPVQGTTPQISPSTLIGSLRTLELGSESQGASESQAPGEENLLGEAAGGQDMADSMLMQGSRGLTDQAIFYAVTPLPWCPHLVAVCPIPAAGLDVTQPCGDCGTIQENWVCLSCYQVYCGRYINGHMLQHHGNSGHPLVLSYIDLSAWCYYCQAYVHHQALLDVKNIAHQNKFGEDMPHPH

[3] = target: HDAC3 (Homo sapiens, UniProt O15379); assay: ELISA-based HDAC activity assay, HDAC3; conditions: for IC50: read-out: IC50 values (nM) HDAC3
[4] = target: HDAC1 (Homo sapiens, UniProt Q13547); assay: ELISA-based HDAC activity assay, HDAC1; conditions: for IC50: read-out: IC50 values (nM) HDAC1
[5] = target: T2, recombinant HDAC8 (Homo sapiens, UniProt Q9BY41); assay: Recombinant HDAC8 inhibition (HDAC-Glo); format: biochemical; conditions: for activity at 0.1 µM: 1.0 × 10^−7 M; for activity at 0.2 µM: 2.0 × 10^−7 M; for activity at 0.05 µM: 5.0 × 10^−8 M; for HDAC8 fold selectivity HDAC1: HDAC8 over HDAC1; for HDAC8 fold selectivity HDAC1 / HDAC8 fold selectivity HDAC2 / HDAC8 fold selectivity HDAC3: calculated from IC50 values; for HDAC8 fold selectivity HDAC2: HDAC8 over HDAC2; for HDAC8 fold selectivity HDAC3: HDAC8 over HDAC3
T2 construct: purchased BPS Bioscience
T2 sequence (Q9BY41 1-377): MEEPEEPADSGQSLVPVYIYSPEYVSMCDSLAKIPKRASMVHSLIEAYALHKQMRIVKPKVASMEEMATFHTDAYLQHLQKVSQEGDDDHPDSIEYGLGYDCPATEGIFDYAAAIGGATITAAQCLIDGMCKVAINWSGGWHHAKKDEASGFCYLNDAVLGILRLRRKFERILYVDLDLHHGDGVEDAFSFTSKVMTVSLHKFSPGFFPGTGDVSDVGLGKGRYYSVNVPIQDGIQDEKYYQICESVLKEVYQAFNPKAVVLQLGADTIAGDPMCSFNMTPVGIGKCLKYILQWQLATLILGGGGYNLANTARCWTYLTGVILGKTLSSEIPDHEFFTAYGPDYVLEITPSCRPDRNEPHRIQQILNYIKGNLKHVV
Protocol: Inhibitory activity with HDAC8 was measured using the following procedure. In a half area 96-well white opaque plate, recombinant HDAC8 (75 ng, BPS Bioscience) was incubated in HDAC-Glo™ buffer (39 μL) with inhibitor in DMSO (1 μL), or DMSO alone (1 μL) as a control, for 15 minutes at room temperature. HDAC-Glo™ reagent (10 μL) was added to each reaction and incubated for 30 min at room temperature. Luminescent signal was measured 30 minutes after adding the substrate reagent using a Geniosplus Fluorimeter (Tecan) at optimal gain. To determine IC50, the luminescent signal was first background corrected with the signal from a background control reaction where no HDAC8 enzyme was added.

[6] = target: HDAC2 (Homo sapiens, UniProt Q92769); assay: ELISA-based HDAC activity assay, HDAC2; conditions: for IC50: read-out: IC50 values (nM) HDAC2
[7] = read-out: Deacetylase activity (%) HDAC6
[8] = read-out: Deacetylase activity (%) HDAC3
[9] = read-out: Deacetylase activity (%) HDAC1
[10] = read-out: Deacetylase activity (%) HDAC8
[11] = read-out: Deacetylase activity (%) HDAC2

Sequence of HDAC1 (Q13547 whole entry): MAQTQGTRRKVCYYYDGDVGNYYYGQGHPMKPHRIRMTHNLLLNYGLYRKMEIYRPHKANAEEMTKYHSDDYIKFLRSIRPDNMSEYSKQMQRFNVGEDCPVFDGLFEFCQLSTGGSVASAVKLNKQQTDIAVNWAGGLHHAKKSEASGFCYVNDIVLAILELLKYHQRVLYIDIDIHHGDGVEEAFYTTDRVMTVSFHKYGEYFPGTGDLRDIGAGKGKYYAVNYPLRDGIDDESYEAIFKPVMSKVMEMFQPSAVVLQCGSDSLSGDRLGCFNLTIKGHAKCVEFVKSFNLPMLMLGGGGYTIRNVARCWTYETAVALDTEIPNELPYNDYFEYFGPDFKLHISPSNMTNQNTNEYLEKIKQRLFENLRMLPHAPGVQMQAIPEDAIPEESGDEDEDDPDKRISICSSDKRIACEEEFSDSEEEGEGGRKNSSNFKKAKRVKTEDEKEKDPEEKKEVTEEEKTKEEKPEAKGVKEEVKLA
Sequence of HDAC3 (O15379 whole entry): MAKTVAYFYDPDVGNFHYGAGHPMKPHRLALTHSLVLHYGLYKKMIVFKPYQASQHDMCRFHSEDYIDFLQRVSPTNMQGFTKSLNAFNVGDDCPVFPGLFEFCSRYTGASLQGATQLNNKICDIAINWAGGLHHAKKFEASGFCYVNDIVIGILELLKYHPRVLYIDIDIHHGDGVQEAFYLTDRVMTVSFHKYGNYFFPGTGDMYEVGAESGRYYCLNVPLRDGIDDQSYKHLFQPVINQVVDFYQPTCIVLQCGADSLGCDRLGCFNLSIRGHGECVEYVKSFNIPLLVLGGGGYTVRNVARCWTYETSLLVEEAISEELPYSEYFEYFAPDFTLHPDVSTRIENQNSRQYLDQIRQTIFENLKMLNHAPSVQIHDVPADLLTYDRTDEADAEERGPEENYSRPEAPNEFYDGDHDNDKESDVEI
Sequence of HDAC3 (Q9Y618 whole entry partner): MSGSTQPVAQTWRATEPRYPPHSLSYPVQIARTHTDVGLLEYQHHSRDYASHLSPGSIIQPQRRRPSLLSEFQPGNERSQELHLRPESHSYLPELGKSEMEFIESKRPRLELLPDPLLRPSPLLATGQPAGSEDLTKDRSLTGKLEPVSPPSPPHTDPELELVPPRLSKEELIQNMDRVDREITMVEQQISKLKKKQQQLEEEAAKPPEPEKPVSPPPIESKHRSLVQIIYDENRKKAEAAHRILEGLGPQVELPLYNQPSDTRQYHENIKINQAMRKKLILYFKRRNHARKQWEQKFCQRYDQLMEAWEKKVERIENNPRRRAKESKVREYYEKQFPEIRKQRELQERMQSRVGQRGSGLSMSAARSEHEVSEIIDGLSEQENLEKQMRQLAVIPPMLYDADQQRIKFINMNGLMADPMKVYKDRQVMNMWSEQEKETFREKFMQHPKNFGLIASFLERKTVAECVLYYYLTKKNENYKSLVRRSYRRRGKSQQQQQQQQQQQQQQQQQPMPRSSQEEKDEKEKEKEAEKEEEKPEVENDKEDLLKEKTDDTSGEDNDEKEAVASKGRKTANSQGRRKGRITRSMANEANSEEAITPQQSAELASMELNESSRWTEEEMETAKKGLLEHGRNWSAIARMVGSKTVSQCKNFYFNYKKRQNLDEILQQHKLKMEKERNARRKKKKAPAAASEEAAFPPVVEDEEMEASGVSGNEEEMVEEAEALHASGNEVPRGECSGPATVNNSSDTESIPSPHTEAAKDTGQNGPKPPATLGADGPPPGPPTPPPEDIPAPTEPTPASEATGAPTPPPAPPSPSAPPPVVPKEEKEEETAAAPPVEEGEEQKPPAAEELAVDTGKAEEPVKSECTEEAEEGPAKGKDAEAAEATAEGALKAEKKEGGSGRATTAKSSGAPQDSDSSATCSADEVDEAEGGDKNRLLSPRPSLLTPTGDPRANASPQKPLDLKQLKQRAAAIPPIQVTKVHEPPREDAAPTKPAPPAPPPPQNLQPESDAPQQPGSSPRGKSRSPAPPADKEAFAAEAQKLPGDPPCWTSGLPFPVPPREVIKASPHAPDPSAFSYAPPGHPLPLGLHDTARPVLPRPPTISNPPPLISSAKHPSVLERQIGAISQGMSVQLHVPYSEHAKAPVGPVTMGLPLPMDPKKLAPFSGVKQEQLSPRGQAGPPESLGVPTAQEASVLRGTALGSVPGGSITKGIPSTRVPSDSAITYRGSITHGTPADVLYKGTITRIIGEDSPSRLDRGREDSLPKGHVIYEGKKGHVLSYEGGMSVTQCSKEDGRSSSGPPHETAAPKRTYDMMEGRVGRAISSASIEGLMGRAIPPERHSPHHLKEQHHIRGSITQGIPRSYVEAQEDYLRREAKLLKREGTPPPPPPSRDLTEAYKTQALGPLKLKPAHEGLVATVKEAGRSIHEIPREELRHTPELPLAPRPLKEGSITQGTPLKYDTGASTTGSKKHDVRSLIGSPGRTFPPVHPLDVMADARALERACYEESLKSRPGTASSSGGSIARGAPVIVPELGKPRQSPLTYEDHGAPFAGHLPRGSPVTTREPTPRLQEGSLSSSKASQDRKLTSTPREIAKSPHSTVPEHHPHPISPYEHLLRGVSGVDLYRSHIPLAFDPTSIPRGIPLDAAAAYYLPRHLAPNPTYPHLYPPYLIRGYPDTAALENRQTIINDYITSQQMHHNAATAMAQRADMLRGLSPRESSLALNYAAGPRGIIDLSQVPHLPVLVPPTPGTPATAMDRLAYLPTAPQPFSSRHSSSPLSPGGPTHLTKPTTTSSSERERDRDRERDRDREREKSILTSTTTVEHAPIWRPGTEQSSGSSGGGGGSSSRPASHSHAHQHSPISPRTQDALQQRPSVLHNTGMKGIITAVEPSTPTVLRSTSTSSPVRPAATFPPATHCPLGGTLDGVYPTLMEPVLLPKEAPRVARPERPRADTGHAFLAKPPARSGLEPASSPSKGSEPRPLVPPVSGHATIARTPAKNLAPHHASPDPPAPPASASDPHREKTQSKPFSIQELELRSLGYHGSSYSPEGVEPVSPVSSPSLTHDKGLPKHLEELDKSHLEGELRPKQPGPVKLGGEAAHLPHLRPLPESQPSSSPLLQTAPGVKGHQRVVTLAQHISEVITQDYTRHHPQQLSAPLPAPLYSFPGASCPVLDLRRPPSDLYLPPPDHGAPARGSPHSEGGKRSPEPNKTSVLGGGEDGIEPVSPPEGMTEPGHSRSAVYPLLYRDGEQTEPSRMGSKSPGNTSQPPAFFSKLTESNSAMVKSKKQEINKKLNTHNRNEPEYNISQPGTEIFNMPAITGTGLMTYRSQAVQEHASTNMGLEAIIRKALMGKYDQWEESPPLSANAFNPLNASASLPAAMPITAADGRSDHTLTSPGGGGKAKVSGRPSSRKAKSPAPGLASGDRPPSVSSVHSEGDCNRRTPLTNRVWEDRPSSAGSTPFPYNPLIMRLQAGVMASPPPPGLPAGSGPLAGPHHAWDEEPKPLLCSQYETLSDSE
Sequence of HDAC2 (Q92769 whole entry): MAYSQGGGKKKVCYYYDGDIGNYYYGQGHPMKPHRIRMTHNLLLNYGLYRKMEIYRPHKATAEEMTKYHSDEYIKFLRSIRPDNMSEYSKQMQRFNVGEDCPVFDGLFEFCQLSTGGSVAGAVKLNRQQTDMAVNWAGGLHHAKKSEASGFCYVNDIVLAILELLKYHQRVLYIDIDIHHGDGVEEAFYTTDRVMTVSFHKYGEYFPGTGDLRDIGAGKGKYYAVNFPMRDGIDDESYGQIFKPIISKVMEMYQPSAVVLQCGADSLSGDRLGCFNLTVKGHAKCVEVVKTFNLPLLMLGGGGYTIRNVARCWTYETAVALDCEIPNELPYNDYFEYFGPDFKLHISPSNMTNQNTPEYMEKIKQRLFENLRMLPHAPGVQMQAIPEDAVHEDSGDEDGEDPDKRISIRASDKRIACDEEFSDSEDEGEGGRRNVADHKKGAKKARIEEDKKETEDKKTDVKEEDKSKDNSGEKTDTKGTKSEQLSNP

- IC50 ([1]; HeLa cell lysates): 65 ± 6 µM
Structure (SMILES): CCCCCCC(CCCC(=O)Nc1ccccc1)CCC(=O)NO (single isomer, unassigned) [Compound 1e, 4-hexyl-N^1-hydroxy-N^8-phenyloctanediamide]
- Deacetylase activity (%) ([1]; 1.0 × 10^−4 M): 32 ± 1%
- Deacetylase activity (%) ([1]; 1.25 × 10^−5 M): 104 ± 1%
- Deacetylase activity (%) ([1]; 2.0 × 10^−4 M): 15 ± 1%
- Deacetylase activity (%) ([1]; 5.0 × 10^−5 M): 57 ± 2%
- Deacetylase activity (%) ([1]; […] 10^−5 M): 88 ± 1%

- HDAC6 fold selectivity HDAC1 [2]: 520 fold
- HDAC6 fold selectivity HDAC2 [2]: 750 fold
- HDAC6 fold selectivity HDAC3 [2]: 560 fold
- activity at 0.05 µM [2, 7]: 64 ± 4%
- activity at 0.1 µM [2, 7]: 48 ± 7%
- activity at 0.2 µM [2, 7]: 37 ± 7%
- activity at 0.4 µM [2, 7]: 17 ± 6%
- activity at 0.8 µM [2, 7]: 16 ± 6%
- IC50 [2]: 95 ± 9 nM
- activity at 10 µM [3, 8]: 76 ± 5%
- activity at 20 µM [3, 8]: 67 ± 4%
- activity at 40 µM [3, 8]: 48 ± 2%
- activity at 80 µM [3, 8]: 33 ± 4%
- activity at 160 µM [3, 8]: 15 ± 2%
- IC50 [3]: 37000 nM
- activity at 10 µM [4, 9]: 84 ± 7%
- activity at 20 µM [4, 9]: 68 ± 3%
- activity at 40 µM [4, 9]: 50 ± 3%
- activity at 80 µM [4, 9]: 32 ± 2%
- activity at 160 µM [4, 9]: 17 ± 1%
- IC50 [4]: 40000 nM
- IC50 [5]: 150 nM
- activity at 0.1 µM [5, 10]: 61 ± 3%
- activity at 0.2 µM [5, 10]: 42 ± 2%
- activity at 0.4 µM ([5]; 4.0 × 10^−7 M, read-out: Deacetylase activity (%) HDAC8): 28 ± 1%
- activity at 0.05 µM [5, 10]: 75 ± 6%
- activity at 0.8 µM ([5]; 8.0 × 10^−7 M, read-out: Deacetylase activity (%) HDAC8): 19 ± 1%
- HDAC8 fold selectivity HDAC1 [5]: 930 fold
- HDAC8 fold selectivity HDAC2 [5]: 1300 fold
- HDAC8 fold selectivity HDAC3 [5]: 1000 fold
- activity at 10 µM [6, 11]: 87 ± 5%
- activity at 20 µM [6, 11]: 74 ± 3%
- activity at 40 µM [6, 11]: 56 ± 3%
- activity at 80 µM [6, 11]: 37 ± 6%
- activity at 160 µM [6, 11]: 22 ± 2%
- IC50 [6]: 51000 nM
Structure (SMILES): O=C(CC[C@H](CCCC(=O)Nc1ccccc1)Cc1ccccc1)NO [(S)-1f, (S)-4-benzyl-N^1-hydroxy-N^8-phenyloctanediamide]

- HDAC6 fold selectivity HDAC1 [2]: 420 fold
- HDAC6 fold selectivity HDAC2 [2]: 540 fold
- HDAC6 fold selectivity HDAC3 [2]: 390 fold
- activity at 0.0125 µM [2, 7]: 67 ± 4%
- activity at 0.05 µM [2, 7]: 57 ± 5%
- activity at 0.1 µM [2, 7]: 37 ± 6%
- activity at 0.2 µM [2, 7]: 26 ± 4%
- activity at […] [2, 7]: 59 ± 8%
- IC50 [2]: 48 nM
- activity at 5 µM [3, 8]: 89 ± 2%
- activity at 10 µM [3, 8]: 77 ± 2%
- activity at 20 µM [3, 8]: 54 ± 4%
- activity at 40 µM [3, 8]: 39 ± 2%
- activity at 80 µM [3, 8]: 25 ± 2%
- IC50 [3]: 27000 nM
- activity at 5 µM [4, 9]: 88 ± 4%
- activity at 10 µM [4, 9]: 72 ± 3%
- activity at 20 µM [4, 9]: 53 ± 6%
- activity at 40 µM [4, 9]: 38 ± 3%
- activity at 80 µM [4, 9]: 24 ± 2%
- IC50 [4]: 25000 nM
- IC50 [5]: 27 nM
- activity at 0.1 µM [5, 10]: 22 ± 1%
- activity at 0.0125 µM ([5]; 1.25 × 10^−8 M, read-out: Deacetylase activity (%) HDAC8): 64 ± 2%
- activity at 0.2 µM [5, 10]: 16 ± 1%
- activity at […] ([5]; 2.5 × 10^−8 M, read-out: Deacetylase activity (%) HDAC8): 56 ± 4%
- activity at 0.05 µM [5, 10]: 37 ± 3%
- HDAC8 fold selectivity HDAC1 [5]: 260 fold
- HDAC8 fold selectivity HDAC2 [5]: 330 fold
- HDAC8 fold selectivity HDAC3 [5]: 240 fold
- activity at 5 µM [6, 11]: 96 ± 1%
- activity at 10 µM [6, 11]: 83 ± 5%
- activity at 20 µM [6, 11]: 71 ± 4%
- activity at 40 µM [6, 11]: 43 ± 5%
- activity at 80 µM [6, 11]: 29 ± 1%
- IC50 [6]: 36000 nM
Structure (SMILES): O=C(CC[C@@H](CCCC(=O)Nc1ccccc1)Cc1ccccc1)NO [(R)-1f, (R)-4-benzyl-N^1-hydroxy-N^8-phenyloctanediamide]

- IC50 ([1]; HeLa cell lysates): 3.3 µM
Structure (SMILES): CC(CCCC(=O)Nc1ccccc1)CCC(=O)NO (racemic) [Compound 1a, N^1-hydroxy-4-methyl-N^8-phenyloctanediamide]
- Deacetylase activity (%) ([1]; 1.0 × 10^−5 M): 17 ± 2%
- Deacetylase activity (%) ([1]; 1.25 × 10^−6 M): 79 ± 3%
- Deacetylase activity (%) ([1]; 5.0 × 10^−6 M): 38 ± 4%
- Deacetylase activity (%) ([1]; 6.25 × 10^−6 M): 91 ± 2%
- fold less potent than SAHA ([1]; HeLa cell lysates, compared to parent SAHA): 18 fold
- Deacetylase activity (%) ([1]; […] 10^−6 M): 60 ± 3%
